Reference: ChEMBL document CHEMBL3992516, “Synthesis and SAR evaluation of novel thioridazine derivatives active against drug-resistant tuberculosis” (Eur J Med Chem, 2017)
≈ marks a conversion by molar mass, not a printed value. Calls of active or inactive are those of the source. The calls are words filed in the database; no cut-off is given here.

Assays:
[1] = tested on: Mycobacterium tuberculosis; assay: Antimycobacterial activity against Mycobacterium tuberculosis MC2 7000 by microplate alamar blue assay; type: functional
[2] = tested on: Mycobacterium tuberculosis; assay: Antimycobacterial activity against Mycobacterium tuberculosis H37Rv ATCC 27294 incubated for 7 days measured 24 hrs post incubation by resazurin microtiter assay; type: functional
[3] = tested on: Mycobacterium tuberculosis; assay: Antimycobacterial activity against drug-succeptible Mycobacterium tuberculosis CF73 incubated for 7 days measured 24 hrs post incubation by resazurin microtiter assay; type: functional
[4] = tested on: Mycolicibacterium smegmatis; assay: Antimycobacterial activity against Mycobacterium smegmatis MC2 155 ATCC 700084 by microplate alamar blue assay; type: functional
[5] = tested on: Mycolicibacterium smegmatis; assay: Inhibition of efflux pump in Mycobacterium smegmatis assessed as increase in accumulation of ethidium bromide at 0.25 times MIC measured every min for 60 mins by fluorimetric method
MRC5 = assay: Cytotoxicity against human MRC5 cells assessed as decrease in cell viability after 24 hrs by resazurin reduction assay; type: cell-based; conditions: MRC5, 24 h
J774 = assay: Cytotoxicity against mouse J774 cells assessed as decrease in cell viability after 24 hrs by resazurin reduction assay; type: cell-based; conditions: J774, 24 h
[6] = Selectivity index, ratio of IC50 for human MRC5 cells to MIC90 for drug-succeptible Mycobacterium tuberculosis CF73; type: toxicity; conditions: read-out: Selectivity Index

| SMILES | MIC [1] | MIC90 [2] | MIC90 [3] | MIC [4] | inhibition [5] | IC50 (MRC5) | IC50 (J774) | selectivity ratio [6] |
| --- | --- | --- | --- | --- | --- | --- | --- | --- |
| CO[C@H]1/C=C/O[C@@]2(C)Oc3c(C)c(O)c4c(O)c(c(/C=N/N5CCN(C)CC5)c(O)c4c3C2=O)NC(=O)/C(C)=C\C=C\[C@H](C)[C@H](O)[C@@H](C)[C@@H](O)[C@@H](C)[C@H](OC(C)=O)[C@@H]1C [RIFAMPIN] | 0.25 µg/mL (≈ 0.304 µM) | 0.3 µg/mL (≈ 0.365 µM) | 8 µg/mL (≈ 9.72 µM) | – | – | – | – | – |
| CSc1ccc2c(c1)N(CCC1CCCCN1Cc1ccccc1)c1ccccc1S2 (stereo unspecified) | 8 µg/mL (≈ 17.9 µM) | > 100 µg/mL | 37 µg/mL (≈ 82.8 µM) | 16 µg/mL (≈ 35.8 µM) | – | – | – | – |
| CSc1ccc2c(c1)N(CCCN1CCN(C)CC1)c1ccccc1S2 | 27 µg/mL (≈ 70 µM) | 69 µg/mL (≈ 179 µM) | 27 µg/mL (≈ 70 µM) | 32 µg/mL (≈ 83 µM) | Active | – | – | – |
| CN1CCN(CCCn2ccc3ccccc32)CC1 | > 64 µg/mL | – | – | > 64 µg/mL | – | – | – | – |
| CN1CCCCC1CCN1c2ccccc2Sc2ccc(Cl)cc21 (stereo unspecified) | 8 µg/mL (≈ 22.3 µM) | 19 µg/mL (≈ 52.9 µM) | 16 µg/mL (≈ 44.6 µM) | 16 µg/mL (≈ 44.6 µM) | – | 13 µg/mL (≈ 36.2 µM) | 8.4 µg/mL (≈ 23.4 µM) | 0.8 |
| c1ccc2c(c1)Sc1ccccc1N2CCC1CCCCN1 (stereo unspecified) | > 64 µg/mL | > 64 µg/mL | 47 µg/mL (≈ 151 µM) | > 64 µg/mL | – | – | – | – |
| CSc1ccc2c(c1)N(CCCN1CCSCC1)c1ccccc1S2 | > 64 µg/mL | – | – | > 64 µg/mL | – | – | – | – |
| c1ccc2c(c1)ccn2CCC1CCCCN1 (stereo unspecified) | – | 2.9 µg/mL (≈ 12.7 µM) | 1 µg/mL (≈ 4.38 µM) | 1.6 µg/mL (≈ 7.01 µM) | inactive | 15 µg/mL (≈ 65.7 µM) | 7.3 µg/mL (≈ 32 µM) | 15 |
| CSc1ccc2c(c1)N(CCCN1CCN(C34CC5CC(CC(C5)C3)C4)CC1)c1ccccc1S2 | 64 µg/mL (≈ 127 µM) | – | – | 64 µg/mL (≈ 127 µM) | – | – | – | – |
| c1ccc2c(c1)c1ccccc1n2CCC1CCCCN1 (stereo unspecified) | > 64 µg/mL | – | – | > 64 µg/mL | – | – | – | – |
| CSc1ccc2c(c1)N(CCC1CCCCN1)c1ccccc1S2 (stereo unspecified) | 8 µg/mL (≈ 22.4 µM) | 100 µg/mL (≈ 280 µM) | > 100 µg/mL | 16 µg/mL (≈ 44.9 µM) | – | – | – | – |
| CSc1ccc2c(c1)N(CCC1CCCCN1C(C)C)c1ccccc1S2 (stereo unspecified) | > 64 µg/mL | – | – | > 64 µg/mL | – | – | – | – |
| CSc1ccc2c(c1)N(CCC1CCCCN1C)c1ccccc1S2 (stereo unspecified) [THIORIDAZINE] | 8 µg/mL (≈ 21.6 µM) | 10 µg/mL (≈ 27 µM) | 8 µg/mL (≈ 21.6 µM) | 16 µg/mL (≈ 43.2 µM) | – | 8.2 µg/mL (≈ 22.1 µM) | 4.1 µg/mL (≈ 11.1 µM) | 1 |
| CCCN1CCCCC1CCN1c2ccccc2Sc2ccc(SC)cc21 (stereo unspecified) | 64 µg/mL (≈ 161 µM) | 45 µg/mL (≈ 113 µM) | – | > 64 µg/mL | – | – | – | – |
| CN1CCCCC1CCn1c2ccccc2c2ccccc21 (stereo unspecified) | 64 µg/mL (≈ 219 µM) | 60 µg/mL (≈ 205 µM) | 39 µg/mL (≈ 133 µM) | > 64 µg/mL | – | – | – | – |
| c1ccc(N2CCN(CCCN3c4ccccc4Sc4ccccc43)CC2)cc1 | > 64 µg/mL | – | – | > 64 µg/mL | – | – | – | – |
| Clc1ccc2c(c1)N(CCCN1CCSCC1)c1ccccc1S2 | > 64 µg/mL | – | – | > 64 µg/mL | – | – | – | – |
| CN1CCCCC1CCN1c2ccccc2Sc2ccccc21 (stereo unspecified) | 16 µg/mL (≈ 49.3 µM) | > 64 µg/mL | 47 µg/mL (≈ 145 µM) | 32 µg/mL (≈ 98.6 µM) | – | – | – | – |
| CSc1ccc2c(c1)N(C(=O)CN1CCCCC1)c1ccccc1S2 | – | > 100 µg/mL | > 100 µg/mL | – | – | – | – | – |
| c1ccc2c(c1)ncn2CCC1CCCCN1 (stereo unspecified) | > 64 µg/mL | 100 µg/mL (≈ 436 µM) | > 100 µg/mL | > 64 µg/mL | – | – | – | – |
| CSc1ccc2c(c1)N(CCCN1CCN(c3ccccc3)CC1)c1ccccc1S2 | > 64 µg/mL | – | – | > 64 µg/mL | – | – | – | – |
| Clc1ccc2c(c1)N(CCC1CCCCN1)c1ccccc1S2 (stereo unspecified) | 4 µg/mL (≈ 11.6 µM) | 26 µg/mL (≈ 75.4 µM) | 11 µg/mL (≈ 31.9 µM) | 16 µg/mL (≈ 46.4 µM) | inactive | 10 µg/mL (≈ 29 µM) | 10.7 µg/mL (≈ 31 µM) | 0.9 |
| Clc1ccc2c(c1)N(CCCN1CCN(c3ccccc3)CC1)c1ccccc1S2 | > 64 µg/mL | – | – | > 64 µg/mL | – | – | – | – |
| NNC(=O)c1ccncc1 [ISONIAZID] | 0.125 µg/mL (≈ 0.911 µM) | 0.03 µg/mL (≈ 0.219 µM) | 0.03 µg/mL (≈ 0.219 µM) | 4 µg/mL (≈ 29.2 µM) | – | – | – | – |
| CSc1ccc2c(c1)N(C(=O)CN1CCN(C)CC1)c1ccccc1S2 | > 64 µg/mL | – | – | > 64 µg/mL | – | – | – | – |
| CSc1ccc2c(c1)N(CCCN1CCN(C3C4CC5CC(C4)CC3C5)CC1)c1ccccc1S2 (stereo unspecified) | > 64 µg/mL | 43 µg/mL (≈ 85 µM) | 98 µg/mL (≈ 194 µM) | 4 µg/mL (≈ 7.91 µM) | – | – | – | – |
| CN1CCCCC1CCn1cnc2ccccc21 (stereo unspecified) | > 64 µg/mL | – | – | > 64 µg/mL | – | – | – | – |
| CN1CCN(CCCN2c3ccccc3Sc3ccccc32)CC1 [PERAZINE] | 27 µg/mL (≈ 79.5 µM) | 100 µg/mL (≈ 295 µM) | > 100 µg/mL | 64 µg/mL (≈ 189 µM) | Active | – | – | – |
